From patent US10233186B2, “Inhibitors of activin receptor-like kinase” (BLUEPRINT MEDICINES CORPORATION, priority 2016, dated 2019)

Key:
[1] = target: T1, ALK2 R206H (GST-tagged mutant ALK2) (Homo sapiens, UniProt Q04771, R206H); assay: ALK binding assay (LANTHASCREEN TR-FRET competitive binding, displacement of Kinase Tracer 178); details: ALK2 R206H, LANTHASCREEN TR-FRET competitive binding; read-out: Binding Assay (IC50)
T1 construct: purchased Carna Bioscience or ThermoFisher 09-148 or PV6232
T1 sequence (Q04771 21-509 R206H): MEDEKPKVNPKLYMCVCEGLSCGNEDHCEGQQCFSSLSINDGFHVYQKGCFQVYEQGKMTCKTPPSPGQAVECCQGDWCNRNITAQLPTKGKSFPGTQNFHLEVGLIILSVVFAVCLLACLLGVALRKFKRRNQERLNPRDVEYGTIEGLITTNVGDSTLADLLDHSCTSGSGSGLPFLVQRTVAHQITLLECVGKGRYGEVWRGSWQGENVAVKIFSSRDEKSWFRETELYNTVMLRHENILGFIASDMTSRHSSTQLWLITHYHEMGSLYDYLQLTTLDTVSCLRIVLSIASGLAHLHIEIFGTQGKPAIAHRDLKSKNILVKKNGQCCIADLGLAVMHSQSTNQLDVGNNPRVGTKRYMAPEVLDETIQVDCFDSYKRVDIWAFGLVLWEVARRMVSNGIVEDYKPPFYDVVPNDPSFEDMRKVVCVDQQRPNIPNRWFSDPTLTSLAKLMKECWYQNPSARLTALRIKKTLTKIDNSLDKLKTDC

[2] = target: T2, human ALK2 R206H (Homo sapiens, UniProt Q04771, R206H); assay: Cell-based ALK2-R206H cell activity assay (Smad1-Ser463/Ser465 phosphorylation by AlphaLISA in HEK293-ALK2-R206H cells); details: read-out: Cell Line (Cell Assay IC50)
T2 construct: expressed in transfected cells; host or cells: HEK293 (ATCC CRL1573), lentivirus transduction, blasticidin selection
T2 sequence (Q04771 21-509 R206H): T1 sequence (Q04771 21-509 R206H)
How it was run: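 Stable HEK293 cells expressing C-terminally FLAG-tagged human ALK2 R206H (lentiviral, blasticidin-selected) were treated with compounds in 10-point, 3-fold dilutions from 10 μM or 1 μM top, in duplicate. Smad1 Ser463/Ser465 phosphorylation was read by AlphaLISA.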

CCNC(=O)N1CCN(c2ccnn3cc(-c4ccc([C@]5(F)CCCNC5)cc4)cc23)CC1 [Compound 188]
IC50 [1]: < 10 nM | IC50 [2]: < 100 nM

CCN1CC(COc2ccc(-c3cc4c(N5CCN(C(=O)C6CC6)CC5)ccnn4c3)cc2)C1 [Compound 217]
IC50 [1]: < 10 nM | IC50 [2]: 100 to 500 nM

CC(C)[C@@H](C)NC(=O)N1CCN(c2ccnn3cc(-c4ccc(C5CCN(C(C)C)CC5)cc4)cc23)CC1 [Compound 663]
IC50 [1]: < 10 nM | IC50 [2]: < 100 nM

CC(C)N1CCOCC1c1ccc(-c2cc3c(N4CCN(C(=O)C5CC5)CC4)ccnn3c2)cc1 (stereo not drawn) [Compound 520]
IC50 [1]: < 10 nM | IC50 [2]: < 100 nM

CCN1CCC(c2ccc(-c3cc4c(N5CCN(C(=O)C6CC6)CC5)ccnn4c3)cc2)C(F)(F)C1 (stereo not drawn) [Compound 355]
IC50 [1]: 10 to 50 nM | IC50 [2]: > 500 nM

CCN1CC[C@H](c2ccc(-c3cc4c(N5CCN(C(=O)[C@H]6C[C@H]6F)CC5)ccnn4c3)cc2)C1 [Compound 226]
IC50 [1]: < 10 nM | IC50 [2]: < 100 nM

CC(C)N1CCC[C@]1(C)c1ccc(-c2cc3c(N4CCN(C(=O)C5CC5)CC4)ccnn3c2)cc1 [Compound 510]
IC50 [1]: < 10 nM | IC50 [2]: < 100 nM

COC1(c2ccc(-c3cc4c(N5CCN(C(=O)NC(C)C)CC5)ccnn4c3)cc2)CCN([C@H](C)COC(F)F)CC1 [Compound 893]
IC50 [1]: < 10 nM | IC50 [2]: < 100 nM

CC(C)NC(=O)N1CCN(c2ccnn3cc(-c4ccc(C5COCCN5)cc4)cc23)CC1 (stereo not drawn) [Compound 478]
IC50 [1]: < 10 nM | IC50 [2]: < 100 nM

CCN1CCC(c2ccc(-c3cc4c(N5CCN(C(=O)C6CC6)CC5)ccnn4c3)cc2)C(F)C1 (stereo not drawn) [Compound 278]
IC50 [1]: < 10 nM | IC50 [2]: < 100 nM

COC1(c2ccc(-c3cc4c(N5CCN(C(=O)C6CC6)CC5)ccnn4c3)cc2)CCNCC1 [Compound 488]
IC50 [1]: < 10 nM | IC50 [2]: < 100 nM

COC1(c2cnc(-c3cc4c(N5CCN(C(=O)NC(C)C)CC5)ccnn4c3)c(F)c2)CCN(C(C)C)CC1 [Compound 725]
IC50 [1]: < 10 nM | IC50 [2]: < 100 nM

COC[C@H](C)N1CCC(OC)(c2ccc(-c3cc4c(N5CCN(C(=O)[C@H]6C[C@H](C#N)C6)CC5)ccnn4c3)nc2)CC1 [Compound 748]
IC50 [1]: < 10 nM | IC50 [2]: < 100 nM

CC(C)NC(=O)N1CCN(c2ccnn3cc(-c4ccc([C@@H]5CCN(C(C)C)C5)cc4)cc23)CC1 [Compound 531]
IC50 [1]: < 10 nM | IC50 [2]: < 100 nM

COCC1(c2ccc(-c3cc4c(N5CCN(C(=O)C6CC6)CC5)ccnn4c3)cc2)CCN(C(C)C)CC1 [Compound 824]
IC50 [1]: < 10 nM | IC50 [2]: < 100 nM

CO[C@]1(c2ccc(-c3cc4c(N5CCN(C(=O)C6CC6)CC5)ccnn4c3)cc2)CCCNC1 [Compound 489]
IC50 [1]: < 10 nM | IC50 [2]: < 100 nM

CCN1CCN(c2ccc(-c3cc4c(N5CCN(C(=O)[C@H]6C[C@@H](O)C6)CC5)ccnn4c3)cc2)CC1 [Compound 335]
IC50 [1]: > 50 nM | IC50 [2]: > 500 nM

CC(C)NC(=O)N1CCN(c2ccnn3cc(-c4ccc([C@H]5CCCN5)cn4)cc23)CC1 [Compound 467]
IC50 [1]: < 10 nM | IC50 [2]: 100 to 500 nM

COC1(c2ccc(-c3cc4c(N5CCN(C(=O)NC(C)C)CC5)ccnn4c3)cc2F)CCCN(C(C)C)C1 (stereo not drawn) [Compound 722]
IC50 [1]: < 10 nM | IC50 [2]: < 100 nM

CCN1CCN(c2ccc(-c3cc4c(N5CCN(C(=O)C6CC6)CC5)ccnn4c3)nc2)CC1 [Compound 222]
IC50 [1]: < 10 nM | IC50 [2]: < 100 nM

N#C[C@@H]1C[C@H]1C(=O)N1CCN(c2ccnn3cc(-c4ccc([C@@]5(F)CCCNC5)cc4)cc23)CC1 [Compound 514]
IC50 [1]: < 10 nM | IC50 [2]: < 100 nM

CC(C)N1CCC[C@@](F)(c2ccc(-c3cc4c(N5CCN(C(=O)OC6COC6)CC5)ccnn4c3)cc2)C1 [Compound 690]
IC50 [1]: < 10 nM | IC50 [2]: < 100 nM

CCOC1(c2ccc(-c3cc4c(N5CCN(C(=O)O[C@H](C)CF)CC5)ccnn4c3)nc2)CCN(C(C)C)CC1 [Compound 864]
IC50 [1]: < 10 nM | IC50 [2]: < 100 nM

COC[C@@H](C)N1CCC(OC)(c2ccc(-c3cc4c(N5CCN(C(=O)[C@H]6C[C@H](C#N)C6)CC5)ccnn4c3)cc2)CC1 [Compound 746]
IC50 [1]: < 10 nM | IC50 [2]: < 100 nM

N#C[C@H]1C[C@@H]1C(=O)N1CCN(c2ccnn3cc(-c4ccc(C5CNCCO5)cc4)cc23)CC1 (stereo partly drawn) [Compound 195]
IC50 [1]: < 10 nM | IC50 [2]: < 100 nM

CC(C)N1CCC[C@H](c2ccc(-c3cc4c(N5CCN(C(=O)[C@H]6C[C@H](C#N)C6)CC5)ccnn4c3)cc2)C1 [Compound 409]
IC50 [1]: < 10 nM | IC50 [2]: < 100 nM

O=C(C1CC1)N1CCN(c2ccnn3cc(-c4cnn(C5CNCC(F)(F)C5)c4)cc23)CC1 (stereo not drawn) [Compound 194, cyclopropyl(4-(6-(1-(5,5-difluoropiperidin-3-yl)-1H-pyrazol-4-yl)pyrrolo[1,2-b]pyridazin-4-yl)piperazin-1-yl)methanone]
IC50 [1]: 10 to 50 nM | IC50 [2]: 100 to 500 nM

CC(C)N1CCC[C@H](c2ccc(-c3cc4c(N5CCN(C(=O)[C@H]6C[C@H](O)C6)CC5)ccnn4c3)cc2)C1 [Compound 387]
IC50 [1]: < 10 nM | IC50 [2]: < 100 nM

CO[C@]1(c2ccc(-c3cc4c(N5CCN(C(=O)C6CC6)CC5)ccnn4c3)nc2)CCCN(C(C)C)C1 [Compound 626]
IC50 [1]: < 10 nM | IC50 [2]: < 100 nM

O=C(C1CC1)N1CCN(c2ccnn3cc(-c4ccc(N5CC6(CNC6)C5)cc4)cc23)CC1 [Compound 146]
IC50 [1]: < 10 nM | IC50 [2]: 100 to 500 nM

COC1(c2ccc(-c3cc4c(N5CCN(C(=O)[C@H]6C[C@H](C#N)C6)CC5)ccnn4c3)cc2)CCN([C@H](C)CO)CC1 [Compound 739]
IC50 [1]: < 10 nM | IC50 [2]: < 100 nM

CC(C)NC(=O)N1CCN(c2ccnn3cc(-c4ccc(C5CCCN5)cn4)cc23)CC1 (stereo not drawn) [Compound 465]
IC50 [1]: < 10 nM | IC50 [2]: 100 to 500 nM

COC1(c2ccc(-c3cc4c(N5CCN(C(=O)NC(C)C)CC5)ccnn4c3)nc2)CCNC(C)(C)C1 (stereo not drawn) [Compound 817]
IC50 [1]: < 10 nM | IC50 [2]: < 100 nM

CC(C)N1CCC(c2ccc(-c3cc4c(N5CCN(C(=O)C6CC6)CC5)ccnn4c3)nc2)CC1 [Compound 266]
IC50 [1]: < 10 nM | IC50 [2]: < 100 nM

CC(C)N1CCN(c2ccc(-c3cc4c(N5CCN(C(=O)C6CC6)CC5)ccnn4c3)cc2)CC1 [Compound 261]
IC50 [1]: < 10 nM | IC50 [2]: < 100 nM

CCN[C@@H](CO)c1ccc(-c2cc3c(N4CCN(C(=O)OC5COC5)CC4)ccnn3c2)cc1 [Compound 780]
IC50 [1]: < 10 nM | IC50 [2]: < 100 nM

CCCNC(=O)N1CCN(c2ccnn3cc(-c4ccc([C@@H]5CCCN(C(C)C)C5)cc4)cc23)CC1 [Compound 580]
IC50 [1]: < 10 nM | IC50 [2]: < 100 nM

CCOC1(c2ccc(-c3cc4c(N5CCN(C(=O)OC6COC6)CC5)ccnn4c3)cc2)CCN(C(C)C)CC1 [Compound 857]
IC50 [1]: < 10 nM | IC50 [2]: < 100 nM

CCO[C@]1(c2ccc(-c3cc4c(N5CCN(C(=O)C6CC6)CC5)ccnn4c3)cc2)CCCN(C(C)C)C1 [Compound 657]
IC50 [1]: < 10 nM | IC50 [2]: < 100 nM

CC(C)NC(=O)N1CCN(c2ccnn3cc(-c4ccc([C@H]5CCCN(C(C)C)C5)cc4)cc23)CC1 [Compound 578]
IC50 [1]: < 10 nM | IC50 [2]: < 100 nM

O=C(C1CC1)N1CCN(c2ccnn3cc(-c4ccc(N5CC6(CCNC6)C5)cc4)cc23)CC1 [Compound 197]
IC50 [1]: 10 to 50 nM | IC50 [2]: 100 to 500 nM

CC(C)N1CC[C@H](c2ccc(-c3cc4c(N5CCN(C(=O)C6CC6)CC5)ccnn4c3)cc2)C1 [Compound 204]
IC50 [1]: < 10 nM | IC50 [2]: < 100 nM

CCOC(=O)N1CCN(c2ccnn3cc(-c4ccc([C@]5(OCC)CCCNC5)cn4)cc23)CC1 [Compound 787]
IC50 [1]: < 10 nM | IC50 [2]: < 100 nM

CCN1CC(F)C(c2ccc(-c3cc4c(N5CCN(C(=O)C6CC6)CC5)ccnn4c3)cc2)C1 (stereo not drawn) [Compound 228]
IC50 [1]: < 10 nM | IC50 [2]: < 100 nM

CC(C)NC(=O)N1CCN(c2ccnn3cc(-c4ccc([C@]5(O)CCN(C(C)C)C5)cc4)cc23)CC1 [Compound 596]
IC50 [1]: < 10 nM | IC50 [2]: 100 to 500 nM

COC1(c2ccc(-c3cc4c(N5CCN(C(=O)OC6COC6)CC5)ccnn4c3)cc2)CCOCC1 [Compound 799]
IC50 [1]: < 10 nM | IC50 [2]: < 100 nM

CCNC(=O)N1CCN(c2ccnn3cc(-c4ccc(C5(O)CN(C(C)C)C5)cc4)cc23)CC1 [Compound 235]
IC50 [1]: < 10 nM | IC50 [2]: 100 to 500 nM

CC(C)N1CCC[C@@H](c2ccc(-c3cc4c(N5CCN(C(=O)[C@H]6C[C@H](C#N)C6)CC5)ccnn4c3)nc2)C1 [Compound 653]
IC50 [1]: < 10 nM | IC50 [2]: < 100 nM

O=C([C@H]1C[C@@H]1F)N1CCN(c2ccnn3cc(-c4ccc(N5CCNCC5)cc4)cc23)CC1 [Compound 184]
IC50 [1]: < 10 nM | IC50 [2]: < 100 nM

O=C(C1CC1)N1CCN(c2ccnn3cc(-c4ccc(C5(O)CN6CCC5CC6)cc4)cc23)CC1 (stereo not drawn) [Compound 501]
IC50 [1]: < 10 nM | IC50 [2]: 100 to 500 nM

COC[C@H](C)N1CCC(OC)(c2ccc(-c3cc4c(N5CCN(C(=O)NC(C)C)CC5)ccnn4c3)nc2)CC1 [Compound 736]
IC50 [1]: < 10 nM | IC50 [2]: < 100 nM
